Laboratory results: patent US10487307B2, “Culture method for pluripotent stem cells” (FUJIFILM CORPORATION, priority 2013, dated 2019)

Experiments:
[1] = tested on: human iPS cells; assay: Cell adhesiveness evaluation 2 (synthetic peptides added to cells seeded on natural vitronectin); assay type: cell-based; conditions: for adhesion of cells to the natural vitronectin on addition of peptide: 100 μM synthetic polypeptide; for Cell adhesion rate (%): 100 μM synthetic polypeptide in cell suspension, natural vitronectin surface 130 pmol/cm^2, 24 hours, no peptide = 100%, n=3
Description: The polypeptides shown in Table 8 were synthesized by an Fmoc solid-phase synthesis method. A surface onto which natural vitronectin was adsorbed at a concentration of 130 pmol/cm^2 was prepared, and then a cell suspension to which 100 μM of the aforementioned synthetic polypeptides were added was seeded into wells at a ratio of 30,000 cells/well. The number of adhesive cells 24 hours after seeding was calculated in the same manner as in <Cell adhesiveness evaluation 1>, and the results are shown in Table 8. In Table 8, the cell adhesion rate is expressed as a ratio calculated by regarding the cell adhesion rate obtained by using a culture solution not containing the synthetic polypeptides as being 100%. n=3.

[2] = tested on: iPS cells; assay: Cell growth property evaluation 2 (2-mercaptoethanol concentration in Essential 8); assay type: cell-based, human; conditions: for Cell growth rate: laminin 20 μg/ml, 72 hours
Description: A cell culture surface coated with RCP-11 was prepared in the same manner as in <Cell growth property evaluation 1> of Example 1. iPS cells collected in the same manner as in <Cell growth property evaluation 1> were suspended in the respective media composed as shown in Table 12 and seeded into wells at a cell density of 10,000 cells/well. After the cells were cultured for 72 hours, the number of cells were quantified in the same manner as in <Cell growth property evaluation 1>, and the cell growth properties were evaluated based on a cell growth rate which is a ratio calculated by regarding the number of cells cultured using RPC-11 as being 100%.

[3] = tested on: human iPS cells ("Tic"); assay: Cell growth property evaluation 1 (different media); assay type: cell-based; conditions: for Cell growth rate: laminin 20 μg/ml, 72 hours, RCP-11 with Essential 8 = 100%, n=3
Description: Furthermore, for evaluation, human iPS cells (“Tic”) that were retention-cultured as described in <Cell adhesiveness evaluation 1> of reference example were treated with TrypLE Select (Invitrogen) for 5 minutes at 37° C. and separated into a single cell. After being subjected to centrifugation for 2 minutes at 300 rpm, the cells were collected, suspended in each medium, and used for the evaluation in each example. Herein, Y-27362 ((R)-(+)-trans-N-(4-pyridyl)-4-(1-aminoethyl)-cyclohexane carboxamide.2HCl.H2O, an Rho binding kinase inhibitor, Wako Pure Chemical Industries, Ltd.) was added to all of the media at a final concentration of 10 μM.
Each of RCP-11, RCP-5, and recombinant laminin (Human Recombinant Laminin-511: BIOLAMINA AB) as control was added to and suspended in a predetermined buffer (a dialysis buffer used in <GRAVY value and aggregation characteristics> of reference examples for RCP-11 and RCP-5, and PBS for the recombinant laminin) at the final concentration shown in Table 11, thereby preparing polypeptide solutions. The polypeptide solutions were added to the respective wells of a plasma-treated 96-well plate made of polystyrene (BD Falcon) having a plasma-treated cell culture surface and held as they were so as to be adsorbed onto the plate for 2 hours at 37° C. In this way, a peptide-treated 96-well plate having a polypeptide-coated surface was obtained. The iPS cells suspended in the respective media shown in Table 11 were seeded into the respective wells of the obtained peptide-treated 96-well plate at a cell density of 10,000 cells/well. After the cells were cultured for 72 hours, nonadhesive cells were washed off with PBS, and only adhesive cells were immobilized using 4% by mass of paraformaldehyde (Wako Pure Chemical Industries, Ltd.). By using an Attophos (registered trademark) AP Fluorescent Substrate System (Promega Corporation), the ALP activity was calculated, and from the calibration curve, the number of undifferentiated iPS cells having the ALP activity was calculated. In Table 11, the cell adhesion rate is expressed as a ratio calculated by regarding the number of pluripotent stem cells after the culture for 72 hours in a combination of RCP-11 and Essential 8 as being 100%. n=3.
In Table 11, “% by mass” in the concentration of 2-meracptoethanol is a proportion (w/v %) of mass (g) of 2-meracptoethanol per 100 mL of the total volume of the medium at the time of culture.

[4] = tested on: human iPS cells ("Tic"); assay: Cell adhesiveness evaluation 1 (ALP activity of adhesive iPS cells); assay type: cell-based; conditions: 30,000 cells/well, 24 hours, natural vitronectin (sample 15) = 100%
Description: The cell adhesiveness of human iPS cells (“Tic”: Cell No. JCRB 1331: from National Institute of Biomedical Innovation. [567-0085, 7-6-8 Asagi Saito Ibaraki-City Osaka]) with respect to the aforementioned polypeptides was evaluated in the following manner.
As feeder cells for retaining the human iPS cells, EmbryoMax (registered trademark) (early mouse embryonic fibroblasts: resistant to hygromycin, treated with mitomycin C, derived from C57/BL6, third passage) (Millipore Corporation) was used. By using DMEM (Invitrogen) and a 10% (v/v) fetal bovine serum medium, the feeder cells were cultured for 24 hours and attached to a T25 flask (Corning Incorporated). As a medium for the human iPS cells, the one obtained by adding FGF-2 (Sigma-Aldrich Co, LLC.) to a medium composed as shown in Table 6 at a final concentration of 10 ng/ml was used.
By using the aforementioned medium, the human iPS cells were retained and cultured in a 5% (v/v, the same unit will be used hereinafter) CO2 incubator at 37° C. Except for the day after the seeding of the iPS cells, the medium was replaced every day. The subculture operation was performed by exfoliating the cells by using Dispase II (neutral protease Grade II, Roche) and separating the cells in an appropriate size by a pipetting operation.
The iPS cells cultured as described above were treated with TrypLE Select (Invitrogen) for 5 minutes at 37° C. and separated into a single cell. After being subjected to centrifugation for 2 minutes at 300 rpm, the cells were collected and suspended in TeSR2 (a medium not containing a heterogeneous animal-derived component and a serum component, STEMCELL Technologies.) containing Y-27362 ((R)-(+)-trans-N-(4-pyridyl)-4-(1-aminoethyl)-cyclohexane carboxamide.2HCl.H2O, an Rho binding kinase inhibitor, Wako Pure Chemical Industries, Ltd.) at a final concentration of 10 μM.
Each of RCP-1 to RCP-11, RCP-21, RCP-25, and RCP-26 as control, human vitronectin (extracted from human serum, BD Biosciences), and recombinant laminin (rLaminin-5: Oriental Yeast Co., ltd. and Human Recombinant Laminin-511: BIOLAMINA AB) was added to and suspended in a predetermined buffer (a dialysis buffer used in <GRAVY value and aggregation characteristics> described above for RCP-1 to RCP-11, and PBS for RCP-21, RCP-25, human vitronectin, and recombinant laminin) at the concentration shown in Table 7, thereby preparing samples 1 to 17. The samples were added to the respective wells of a 96-well plate and adsorbed onto the plate by being held for 2 hours at 37° C.
Into the respective wells of the 96-well plate treated with the peptides, iPS cells were seeded at a cell density of 30,000 cells/well. After the cells were cultured for 24 hours, the nonadhesive cells were washed off with PBS, and only the adhesive cells were immobilized by using 4% (v/v) paraformaldehyde (Wako Pure Chemical Industries, Ltd.). By using an Attophos (registered trademark) AP Fluorescent Substrate System (Promega Corporation), the ALP activity was calculated, and from the calibration curve, the number of undifferentiated iPS cells having the ALP activity was calculated. In Table 7, the cell adhesion rate is expressed as a ratio calculated by regarding the cell adhesion rate obtained from the sample 15 using natural vitronectin as being 100%. n=3.

[5] = tested on: iPS cells; assay: Growth evaluation, number of cells after 3 days; assay type: cell-based, human; conditions: added amount 1.28 μg/cm^2; 5,000 cells/well; sample 1 (RCP-1) = 100%
Description: By adding RCP-1 to RCP-11 and Human Recombinant Laminin-511 as control at the concentration shown in Table 9, samples 1 to 12 were prepared. The samples were seeded into a 96-well plate, onto which each of the polypeptides was adsorbed in the same manner as in <Cell adhesiveness evaluation 1>, at a ratio of 5,000 cells/well and cultured for 3 days in a CO2 incubator at 37° C. The number of cells after 3 days was calculated in the same manner as in <Cell adhesiveness evaluation 1>. In Table 9, the number of cells after 3 days is expressed as a ratio calculated by regarding the number of cells obtained by using the sample 1 as being 100%.

KGRCTEGFNVDKKCQCDELC (Peptide designed for comparative tests (Peptide-2))
adhesion of cells to the natural vitronectin on addition of peptide [1]: not hindered
Cell adhesion rate (%) [1]: 92.7 ± 19.6%

DQESCKGRCTEGFNVDKKCQ (Peptide designed for comparative tests (Peptide-1))
adhesion of cells to the natural vitronectin on addition of peptide [1]: not hindered
Cell adhesion rate (%) [1]: 91.8 ± 1.2%

CCTDYTAECKPQVTRGDVFT (Peptide designed for comparative tests (Peptide-5))
adhesion of cells to the natural vitronectin on addition of peptide [1]: significantly hindered
Cell adhesion rate (%) [1]: 70.5 ± 7.1%

CCTDYTAECKPQVTRGEVFT (Peptide designed for comparative tests (Peptide-7))
adhesion of cells to the natural vitronectin on addition of peptide [1]: not hindered
Cell adhesion rate (%) [1]: 86.7 ± 7.1%

Laminin-511: recombinant laminin (Human Recombinant Laminin-511: BIOLAMINA AB)
Cell growth rate ([2]; Essential8, 2-mercaptoethanol 0): 45.9%
Cell growth rate ([2]; Essential8, 2-mercaptoethanol 10 μM (0.0000078% by mass)): 48.6%
Cell growth rate ([2]; Essential8, 2-mercaptoethanol 10 μM (0.000078% by mass)): 48.1%
Cell growth rate ([2]; Essential8, 2-mercaptoethanol 100 μM (0.00078% by mass)): 44.6%
Cell growth rate ([2]; Essential8, 2-mercaptoethanol 1 mM (0.0078% by mass)): 40.9%
Cell growth rate ([2]; Essential8, 2-mercaptoethanol 10 mM (0.078% by mass)): 39.3%
dependence of cell growth properties on the concentration of 2-mercaptoethanol ([2]; Table 12): such characteristics were not observed
cell growth properties with Essential 8 or NutriStem not containing 2-mercaptoethanol versus media containing it ([3]; Table 11): a clear correlation could not be confirmed
Cell growth rate ([3]; medium Essential8, 2-mercaptoethanol 0): 45.9%
Cell growth rate ([3]; medium NutriStem, 2-mercaptoethanol 0): 98.8%
Cell growth rate ([3]; medium ReproFF2, 2-mercaptoethanol 102.4 μM (0.0008% by mass)): 93.9%
Cell growth rate ([3]; medium StemPro hESC SFM, 2-mercaptoethanol 100 μM (0.00078% by mass)): 103.7%
Cell growth rate ([3]; medium TeSR2, 2-mercaptoethanol 48.6 μM (0.00038% by mass)): 14.4%
Cell adhesion rate (%) ([4]; added amount 5.0 μg/cm^2): 142.0%
Number of cells after 3 days (%) [5]: 56.8%

TAECKPQVTRGDVFTMPEDE (Peptide designed for comparative tests (Peptide-6))
adhesion of cells to the natural vitronectin on addition of peptide [1]: significantly hindered
Cell adhesion rate (%) [1]: 52.7 ± 10.3%

TAECKPQVTRGEVFTMPEDE (Peptide designed for comparative tests (Peptide-8))
adhesion of cells to the natural vitronectin on addition of peptide [1]: not hindered
Cell adhesion rate (%) [1]: 83.8 ± 14.8%

DKKCQCDELCSYYQSCCTDY (Peptide designed for comparative tests (Peptide-4))
adhesion of cells to the natural vitronectin on addition of peptide [1]: significantly hindered
Cell adhesion rate (%) [1]: 63.8 ± 11.6%

rLaminin-5: recombinant laminin (rLaminin-5: Oriental Yeast Co., ltd.)
Cell adhesion rate (%) ([4]; added amount 3.2 μg/cm^2): 155.7%

EGFNVDKKCQCDELCSYYQS (Peptide designed for comparative tests (Peptide-3))
adhesion of cells to the natural vitronectin on addition of peptide [1]: not hindered
Cell adhesion rate (%) [1]: 102.5 ± 4.2%
